The data set can be described thus: Tolerability of Auristatin F-hydroxypropylamide (MTD study). In kind it is in vivo, mice. Conditions: n=6. An excerpt:
The vehicle control group received physiological saline.

Non-standard residues stand in square brackets, D forms with d. Residues, ends and D or L forms follow the SMILES beside them. *: point of attachment. Dolaproine = CO[C@@H]([C@@H]1CCCN1)[C@@H](C)C(=O)O; Dil = CC[C@H](C)[C@H](NC)[C@@H](CC(=O)O)OC; NMe2Val = CC(C)[C@@H](C(=O)*)N(C)C; NH(3-hydroxypropyl) = OCCCN*

For the compound `CC[C@H](C)[C@@H]([C@@H](CC(=O)N1CCC[C@H]1[C@H](OC)[C@@H](C)C(=O)N[C@@H](Cc1ccccc1)C(=O)NCCCO)OC)N(C)C(=O)[C@@H](NC(=O)[C@H](C(C)C)N(C)C)C(C)C` [AF-HPA, auristatin F hydroxypropyl amide] (NMe2Val-V[Dil][Dolaproine]F-{NH(3-hydroxypropyl)}), the Mortality or morbidity by setting is: (3.2 mg/kg single IV dose) 1 animal died on day 7, 3; (4.7 mg/kg single IV dose) 1 animal died on Day 3, 1.
